Measured values taken from patent US8729061B2, “Pyrrolidine derivatives” (Hoffmann-La Roche Inc., priority 2011, dated 2014).

How the values were obtained:
Assay type in all cases: biochemical
human Cat L = human Cat L (Homo sapiens (Human), UniProt P07711); assay: Cathepsin enzyme inhibition assay (fluorogenic peptide substrate), Cat L; settings: enzyme 1 nM, substrate Z-Val-Val-Arg-AMC 20 μM, pH 6.5
Outline: (§1)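 Fluorogenic cleavage assay run separately on human and mouse enzymes, each at 1 nM, in 100 mM potassium phosphate pH 6.5 with 5 mM EDTA, 5 mM DTT and 0.001% Triton X-100. Reaction started with 20 μM Z-Val-Val-Arg-AMC, or Z-Leu-Arg-AMC for Cat K; AMC read at ex 360/em 465 nm. IC50 calculated by standard methods.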

human Cathepsin S = human Cathepsin S (Homo sapiens (Human), UniProt P25774); assay: Cathepsin enzyme inhibition assay (fluorogenic peptide substrate), Cat S; settings: enzyme 1 nM, substrate Z-Val-Val-Arg-AMC 20 μM, pH 6.5
human Cathepsin S, sequence (P25774 115-331): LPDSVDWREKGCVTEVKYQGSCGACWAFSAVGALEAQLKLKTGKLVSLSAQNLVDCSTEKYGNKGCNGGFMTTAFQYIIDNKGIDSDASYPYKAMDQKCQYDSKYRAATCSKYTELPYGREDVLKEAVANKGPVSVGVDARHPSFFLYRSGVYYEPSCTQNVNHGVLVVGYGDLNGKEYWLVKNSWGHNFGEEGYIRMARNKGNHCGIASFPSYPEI
Outline: as §1

human Cat B = human Cat B (Homo sapiens (Human), UniProt P07858); assay: Cathepsin enzyme inhibition assay (fluorogenic peptide substrate), Cat B; settings: enzyme 1 nM, substrate Z-Val-Val-Arg-AMC 20 μM, pH 6.5
Outline: as §1

human Cat K = human Cat K (Homo sapiens (Human), UniProt P43235); assay: Cathepsin enzyme inhibition assay (fluorogenic peptide substrate), Cat K; settings: enzyme 1 nM, substrate Z-Leu-Arg-AMC 20 μM, pH 6.5
human Cat K, sequence (P43235 115-329): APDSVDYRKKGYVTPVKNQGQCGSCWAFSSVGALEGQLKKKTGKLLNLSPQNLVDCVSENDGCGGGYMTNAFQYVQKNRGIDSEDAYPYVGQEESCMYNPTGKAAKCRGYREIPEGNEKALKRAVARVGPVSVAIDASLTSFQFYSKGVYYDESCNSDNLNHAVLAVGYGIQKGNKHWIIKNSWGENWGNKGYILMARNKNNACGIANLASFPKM
Outline: as §1

human Cat L, sequence (P07711 114-333): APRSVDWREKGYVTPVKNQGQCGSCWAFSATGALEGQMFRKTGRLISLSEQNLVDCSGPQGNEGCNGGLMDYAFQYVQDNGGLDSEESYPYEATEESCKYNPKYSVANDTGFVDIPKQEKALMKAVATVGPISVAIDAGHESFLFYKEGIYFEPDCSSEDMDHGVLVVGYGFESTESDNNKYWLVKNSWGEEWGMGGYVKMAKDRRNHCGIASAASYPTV

IC50 (human Cat L) [nM]	IC50 (human Cathepsin S) [nM]	IC50 (human Cat B) [nM]	IC50 (human Cat K) [nM]	SMILES
6.1	2.87	354	144	CCCCNC(=O)C(=O)[C@H](CC)NC(=O)[C@@H]1C[C@@H](S(=O)(=O)c2ccccc2Cl)CN1C(=O)C1(c2ncc(Cl)cc2F)CC1 [Example 60, (2S,4R)—N—((S)-1-(butylamino)-1,2-dioxopentan-3-yl)-1-(1-(5-chloro-3-fluoropyridin-2-yl)cyclopropanecarbonyl)-4-(2-chlorophenylsulfonyl)pyrrolidine-2-carboxamide]
6.2	2.93	172	106	CCCCNC(=O)C(=O)[C@H](CCC)NC(=O)[C@@H]1C[C@@H](S(=O)(=O)c2ccccc2Cl)CN1C(=O)C1(c2ncc(Cl)cc2F)CC1 [Example 61, (2S,4R)—N—((S)-1-(butylamino)-1,2-dioxohexan-3-yl)-1-(1-(5-chloro-3-fluoropyridin-2-yl)cyclopropanecarbonyl)-4-(2-chlorophenylsulfonyl)pyrrolidine-2-carboxamide]
6	2.35	120	41.2	CCC[C@H](NC(=O)[C@@H]1C[C@@H](S(=O)(=O)c2ccccc2Cl)CN1C(=O)C1(c2ncc(Cl)cc2F)CC1)C(=O)C(=O)NCc1ccccc1 [Example 62, (2S,4R)—N—((S)-1-(benzylamino)-1,2-dioxohexan-3-yl)-1-(1-(5-chloro-3-fluoropyridin-2-yl)cyclopropanecarbonyl)-4-(2-chlorophenylsulfonyl)pyrrolidine-2-carboxamide]
